Laboratory results taken from PubChem BioAssay AID248 (DTP/NCI, 2004).
Values joined by “and” are separate entries in the source; they are usually repeats but may differ in a detail not shown here. Equal values may be shown once. Toxic doses and inconclusive results are not listed. Cut-off read from the data, not from the text of the source: active = T/C of 150% or more; inactive = T/C below 125%.

Tested on: L1210 leukemia ip in BDF1 mice, survival T/C
Test: NCI In Vivo Anticancer Drug Screen. Data for tumor model L1210 Leukemia (intraperitoneal) in B6D2F1 (BDF1) mice
Conditions: endpoint: mean survival time, higher = longer survival
Summary of the method: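 Ratio derived from survival: compound-dosed mice over vehicle-dosed mice, all bearing a transplantable tumor.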

[1] = dose: 100.0 mg/kg/injection, schedule: Q04DX003 (ip), vehicle: saline
[2] = dose: 200.0 mg/kg/injection, schedule: Q04DX003 (ip), vehicle: saline
[3] = dose: 400.0 mg/kg/injection, schedule: Q04DX003 (ip), vehicle: saline
[4] = dose: 100.0 mg/kg/injection, schedule: Q01DX009 (ip), vehicle: Klucel (hydroxypropylcellulose) (HPC)
[5] = dose: 200.0 mg/kg/injection, schedule: Q01DX009 (ip), vehicle: Klucel (hydroxypropylcellulose) (HPC)
[6] = dose: 100.0 mg/kg/injection, schedule: Q01DX001 (ip), vehicle: saline
[7] = dose: 200.0 mg/kg/injection, schedule: Q01DX001 (ip), vehicle: saline
[8] = dose: 400.0 mg/kg/injection, schedule: Q01DX001 (ip), vehicle: saline
[9] = dose: 100.0 mg/kg/injection, schedule: Q04DX003 (ip), vehicle: saline with Tween-80
[10] = dose: 200.0 mg/kg/injection, schedule: Q04DX003 (ip), vehicle: saline with Tween-80
[11] = dose: 400.0 mg/kg/injection, schedule: Q04DX003 (ip), vehicle: saline with Tween-80
[12] = dose: 50.0 mg/kg/injection, schedule: Q01DX009 (ip), vehicle: saline with Tween-80
[13] = dose: 100.0 mg/kg/injection, schedule: Q01DX009 (ip), vehicle: saline with Tween-80
[14] = dose: 100.0 mg/kg/injection, schedule: Q04DX003 (ip), vehicle: Klucel (hydroxypropylcellulose) (HPC)
[15] = dose: 200.0 mg/kg/injection, schedule: Q04DX003 (ip), vehicle: Klucel (hydroxypropylcellulose) (HPC)
[16] = dose: 400.0 mg/kg/injection, schedule: Q04DX003 (ip), vehicle: Klucel (hydroxypropylcellulose) (HPC)
[17] = dose: 200.0 mg/kg/injection, schedule: Q01DX009 (ip), vehicle: saline with Tween-80

Measured: T/C

c1ccc2c(c1)C1c3cccc[n+]3C2C2C1CC1C3c4ccccc4C(C12)[n+]1ccccc13 (configuration not stated)
inactive: dose: 1.56 mg/kg/injection, schedule: Q04DX003 (ip), vehicle: saline 100 % of control | dose: 3.12 mg/kg/injection, schedule: Q01DX009 (ip), vehicle: saline 111 % of control | dose: 3.12 mg/kg/injection, schedule: Q04DX003 (ip), vehicle: saline 96 % of control | dose: 6.25 mg/kg/injection, schedule: Q01DX009 (ip), vehicle: saline 100 % of control and 88 % of control | dose: 6.25 mg/kg/injection, schedule: Q04DX003 (ip), vehicle: saline 95 % of control | dose: 12.5 mg/kg/injection, schedule: Q01DX009 (ip), vehicle: saline 100 % of control and 102 % of control

O=C(c1ccccc1)N1CCC(CCO)C(O)C1Cc1c[nH]c2ccccc12 (configuration not stated)
inactive: dose: 100.0 mg/kg/injection, schedule: Q01DX009 (ip), vehicle: saline 96 % of control | [1] 100 % of control | dose: 200.0 mg/kg/injection, schedule: Q01DX009 (ip), vehicle: saline 93 % of control | [2] 94 % of control | dose: 400.0 mg/kg/injection, schedule: Q01DX009 (ip), vehicle: saline 98 % of control | [3] 92 % of control

COC(=O)c1ccccc1NC(=O)c1c(-c2ccccc2Cl)noc1C
inactive: [4] 99 % of control | [5] 94 % of control | dose: 400.0 mg/kg/injection, schedule: Q01DX009 (ip), vehicle: Klucel (hydroxypropylcellulose) (HPC) 98 % of control

NC(=O)CCC(C(=O)O)N1C(=O)C2C3CCC(C3)C2C1=O (configuration not stated)
inactive: [1] 98 % of control | [2] 95 % of control | [3] 95 % of control

CN(C)/N=N\c1nc[nH]c1C(=O)NN
inactive: dose: 50.0 mg/kg/injection, schedule: Q01DX001 (ip), vehicle: saline 107 % of control | [6] 101 % of control | [7] 107 % of control | [8] 110 % of control

OC(c1ccccc1)C(Nc1ccccc1)c1ccccc1 (configuration not stated)
inactive: dose: 75.0 mg/kg/injection, schedule: Q01DX001 (ip), vehicle: saline 102 % of control | [9] 96 % of control | dose: 150.0 mg/kg/injection, schedule: Q01DX001 (ip), vehicle: saline 94 % of control | [10] 98 % of control | dose: 300.0 mg/kg/injection, schedule: Q01DX001 (ip), vehicle: saline 97 % of control | [11] 93 % of control

CCOC(=O)C1=NN(c2ccccc2)C(=O)C1N=Nc1ccc(S(=O)(=O)Nc2ccccn2)cc1 (configuration not stated)
inactive: [6] 102 % of control | [7] 96 % of control | [8] 93 % of control

Cc1nc2cccc3ccc4c5ccccc5cc1c4c32
inactive: [9] 92 % of control | [10] 92 % of control | [11] 87 % of control

CN(C)c1ccc(/C=N/NC(=O)c2ccc(Cl)cc2)cc1
inactive: [12] 100 % of control | [13] 89 % of control

CC12CCC(C)(O1)C1C(=O)OC(=O)C12 (configuration not stated)
inactive: [14] 96 % of control | [15] 98 % of control | [16] 98 % of control

COC(=O)Cc1cc(C)n(C)c(=O)c1CN1C(=O)c2ccccc2C1=O
inactive: dose: 100.0 mg/kg/injection, schedule: Q04DX003 (ip), vehicle: other 102 % of control | dose: 200.0 mg/kg/injection, schedule: Q04DX003 (ip), vehicle: other 107 % of control | dose: 400.0 mg/kg/injection, schedule: Q04DX003 (ip), vehicle: other 98 % of control

CC1OC(n2cnc3c(N)ncnc32)C(O)C1O (configuration not stated)
inactive: dose: 50.0 mg/kg/injection, schedule: Q01DX001 (sc), vehicle: carboxymethylcellulose (CMC) 104 % of control | dose: 100.0 mg/kg/injection, schedule: Q01DX001 (sc), vehicle: carboxymethylcellulose (CMC) 90 % of control | dose: 200.0 mg/kg/injection, schedule: Q01DX001 (sc), vehicle: carboxymethylcellulose (CMC) 93 % of control | dose: 400.0 mg/kg/injection, schedule: Q01DX001 (sc), vehicle: carboxymethylcellulose (CMC) 106 % of control

CCOC(=O)Nc1cc(NCC(O)CN(C)c2ccc(Cl)cc2)c([N+](=O)[O-])c(N)n1 (configuration not stated)
inactive: dose: 100.0 mg/kg/injection, schedule: Q01DX001 (ip), vehicle: saline with Tween-80 92 % of control | dose: 200.0 mg/kg/injection, schedule: Q01DX001 (ip), vehicle: saline with Tween-80 86 % of control | dose: 400.0 mg/kg/injection, schedule: Q01DX001 (ip), vehicle: saline with Tween-80 89 % of control

CCCCCCCCCCCC(=O)CCCCC
inactive: dose: 100.0 mg/kg/injection, schedule: Q01DX009 (ip), vehicle: other 91 % of control | dose: 200.0 mg/kg/injection, schedule: Q01DX009 (ip), vehicle: other 94 % of control | dose: 400.0 mg/kg/injection, schedule: Q01DX009 (ip), vehicle: other 91 % of control

CCOC(=O)c1cnc(SC)nc1NC(C)(C)C
inactive: [14] 101 % of control | [15] 100 % of control | [16] 94 % of control

CN(C)C(=O)c1cc[n+](Cc2ccc(Cl)c(Cl)c2)cc1
inactive: [1] 105 % of control

C=CS(=O)(=O)CCCC
inactive: [13] 97 % of control | [17] 101 % of control

O=NN(Cc1ccc(Cl)cc1)C(=O)NCc1ccc(Cl)cc1
inactive: dose: 400.0 mg/kg/injection, schedule: Q01DX Z (ip), vehicle: carboxymethylcellulose (CMC) 104 % of control

CC(=O)N(C)c1ccc(S(=O)(=O)Cl)cc1
inactive: [13] 101 % of control | [17] 95 % of control

COc1cc2nc3cc([N+](=O)[O-])ccc3c(Cl)c2cc1OC
inactive: [4] 96 % of control | [14] 97 % of control | [5] 88 % of control | [15] 98 % of control | [16] 103 % of control

CCCCCCOC(=O)C(O)c1ccccc1 (configuration not stated)
inactive: [12] 95 % of control | [13] 98 % of control | [17] 95 % of control

COc1ccc(CCN=Cc2ccc3c(c2)Cc2ccccc2-3)cc1OC
inactive: [1] 105 % of control | [2] 108 % of control | [3] 90 % of control
